Among the data in ChEMBL document CHEMBL4699503, “Structural basis for producing selective MAP2K7 inhibitors” (Bioorg Med Chem Lett, 2020) are IC50 values, retold here.

The assay concerns the target T1, Dual specificity mitogen-activated protein kinase kinase 7 (Homo sapiens, UniProt O14733).
T1 sequence (O14733 whole entry): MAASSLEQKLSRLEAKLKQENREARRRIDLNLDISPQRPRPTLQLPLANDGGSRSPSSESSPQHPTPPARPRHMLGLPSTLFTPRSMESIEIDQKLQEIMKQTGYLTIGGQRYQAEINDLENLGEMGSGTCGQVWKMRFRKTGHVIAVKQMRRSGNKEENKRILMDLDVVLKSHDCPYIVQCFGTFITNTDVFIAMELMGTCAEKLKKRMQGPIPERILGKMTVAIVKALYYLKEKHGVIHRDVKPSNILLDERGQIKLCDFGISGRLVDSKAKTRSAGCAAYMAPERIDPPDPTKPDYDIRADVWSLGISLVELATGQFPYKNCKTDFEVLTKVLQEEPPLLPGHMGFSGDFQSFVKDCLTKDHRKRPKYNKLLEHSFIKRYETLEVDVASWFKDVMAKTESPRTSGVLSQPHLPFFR
Description: Inhibition of MAP2K7 (unknown origin) using JNK peptide KFMMTPYVVTR incubated for 30 mins measured by multimode reader based ADP-glo assay. On the technique in general: ADP-Glo first removes unused ATP, then detects ADP through luciferase.

As for `C#CCNC(=O)c1cc(NC(=O)C=C)cc(-c2n[nH]c3ccccc23)c1`, the midpoint of inhibition, the IC50, lay at 6.5 nM.
